In this assay the target is T1, Babesia orientalis lactate dehydrogenase (BoLDH) (Babesia orientalis, UniProt A0A8X6EH37).
T1 construct: full-length ORF (330 residues), N-terminal His6 tag, recombinant rBoLDH
T1 sequence (A0A8X6EH37 1-330): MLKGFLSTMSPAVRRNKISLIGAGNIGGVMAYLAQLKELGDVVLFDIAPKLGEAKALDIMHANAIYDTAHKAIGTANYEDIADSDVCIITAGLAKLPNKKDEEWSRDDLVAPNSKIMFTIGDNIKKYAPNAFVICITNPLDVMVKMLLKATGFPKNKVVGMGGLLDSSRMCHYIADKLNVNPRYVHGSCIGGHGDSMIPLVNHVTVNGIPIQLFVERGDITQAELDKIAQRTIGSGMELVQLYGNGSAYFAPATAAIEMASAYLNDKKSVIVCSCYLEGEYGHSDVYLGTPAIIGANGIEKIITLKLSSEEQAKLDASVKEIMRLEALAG
Briefly: Michaelis-Menten inhibition kinetics, lactate to pyruvate, NADH absorbance at […] nm, […] gossypol. The format is biochemical.

Our source for the Ki values is publication PMC8766848, “The Structural Basis of Babesia orientalis Lactate Dehydrogenase” (Frontiers in Cellular and Infection Microbiology, 2022).

Regarding `Cc1cc2c(C(C)C)c(O)c(O)c(C=O)c2c(O)c1-c1c(C)cc2c(C(C)C)c(O)c(O)c(C=O)c2c1O` [gossypol], the affinity corresponds to a Ki of 4.24 ± 0.25 µM.

The term Ki denotes the dissociation constant of the complex between target and ligand, obtained from inhibition or displacement.
